Measured values as given in PMC10095950, “Development of Cell Permeable NanoBRET Probes for the Measurement of PLK1 Target Engagement in Live Cells” (Molecules, 2023).

Columns and labels:
Type in all cases: cell-based
human PLK1 (NLuc-PLK1) = target: T1, human PLK1 (NLuc-PLK1) (Homo sapiens, UniProt P53350); assay: PLK1 NanoBRET target engagement assay (NLuc-PLK1, N-terminal fusion) in live HEK293 cells; conditions: probe 11; at least three technical replicates; read-out: PLK1 NanoBRET IC50 (dose response, Figure 3a)
T1 construct: plasmid DNAs encoding N- and C-terminal fusions of full-length PLK1 with NLuc; host or cells: HEK293
T1 sequence (P53350 whole entry, the tested form may be a part): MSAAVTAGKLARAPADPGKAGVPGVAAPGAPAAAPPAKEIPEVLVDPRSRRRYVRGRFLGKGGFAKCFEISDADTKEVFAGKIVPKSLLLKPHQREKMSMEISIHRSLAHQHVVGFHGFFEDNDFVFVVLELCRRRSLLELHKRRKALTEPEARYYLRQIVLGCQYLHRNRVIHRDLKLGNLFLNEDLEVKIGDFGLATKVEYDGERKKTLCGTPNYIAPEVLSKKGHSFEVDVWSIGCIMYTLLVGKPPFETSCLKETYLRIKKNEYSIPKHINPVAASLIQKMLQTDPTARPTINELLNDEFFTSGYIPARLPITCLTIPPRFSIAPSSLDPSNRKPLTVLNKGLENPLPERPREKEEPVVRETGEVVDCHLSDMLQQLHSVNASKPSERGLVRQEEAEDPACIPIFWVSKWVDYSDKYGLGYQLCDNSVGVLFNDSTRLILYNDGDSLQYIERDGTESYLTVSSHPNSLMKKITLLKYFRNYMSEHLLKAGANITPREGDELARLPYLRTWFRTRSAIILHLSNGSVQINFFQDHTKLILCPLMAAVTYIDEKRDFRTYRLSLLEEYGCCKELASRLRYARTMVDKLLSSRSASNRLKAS
Description: HEK293 cells (ATCC) were cultured in DMEM (Gibco) + 10% FBS (Seradigm) with incubation in a humidified 37 °C/5% CO2 incubator. N- or C-terminal NLuc/PLK fusions were encoded in pFN31K expression vectors (Promega), including flexible Gly-Ser-Ser-Gly linkers between NLuc and ORFs corresponding to UniProt isoform 1 (PLK1: P53350-1, PLK2: Q9NYY3-1, and PLK3: Q9H4B4-1). Carrier DNA was encoded in pGEM-3Z vectors (Promega). For cellular BRET target engagement experiments, HEK293 cells were transfected with NLuc/PLK fusion constructs using FuGENE HD (Promega) according to the manufacturer’s protocol. […] One part (vol) of FuGENE HD complexes thus formed was combined with 20 parts (vol) of HEK293 cells suspended at a density of 2 × 10^5 per mL, followed by incubation in a humidified 37 °C/5% CO2 incubator for 20 hr.
To test BRET probes 10 and 11 against PLK1, HEK293 adherent cells were incubated with either NLuc fused to the N-terminus of PLK1 (NLuc-PLK1) or the C-terminus of PLK1 (PLK1-NLuc) using 1 µM of the BRET probe, and mBRET units were measured. […] NLuc-PLK2 and NLuc-PLK3 were tested with both probes 10 and 11 using the same protocol.
To estimate the half-maximal effective concentration (EC50) of probe 11 to PLK1 in cells, adherent HEK293 cells in a 96-well plate expressing the NLuc-PLK1 fusion protein were mixed with an increasing concentration of BRET probe 11. The resulting BRET ratio was fitted to the sigmoidal 4-parameter dose–response curve using Prism 9.0 (GraphPad, Boston MA, USA).

WEE1 = target: T2, WEE1 (Homo sapiens, UniProt P30291); conditions: live cell, K10 tracer
T2 construct: host or cells: HEK293
T2 sequence (P30291 whole entry): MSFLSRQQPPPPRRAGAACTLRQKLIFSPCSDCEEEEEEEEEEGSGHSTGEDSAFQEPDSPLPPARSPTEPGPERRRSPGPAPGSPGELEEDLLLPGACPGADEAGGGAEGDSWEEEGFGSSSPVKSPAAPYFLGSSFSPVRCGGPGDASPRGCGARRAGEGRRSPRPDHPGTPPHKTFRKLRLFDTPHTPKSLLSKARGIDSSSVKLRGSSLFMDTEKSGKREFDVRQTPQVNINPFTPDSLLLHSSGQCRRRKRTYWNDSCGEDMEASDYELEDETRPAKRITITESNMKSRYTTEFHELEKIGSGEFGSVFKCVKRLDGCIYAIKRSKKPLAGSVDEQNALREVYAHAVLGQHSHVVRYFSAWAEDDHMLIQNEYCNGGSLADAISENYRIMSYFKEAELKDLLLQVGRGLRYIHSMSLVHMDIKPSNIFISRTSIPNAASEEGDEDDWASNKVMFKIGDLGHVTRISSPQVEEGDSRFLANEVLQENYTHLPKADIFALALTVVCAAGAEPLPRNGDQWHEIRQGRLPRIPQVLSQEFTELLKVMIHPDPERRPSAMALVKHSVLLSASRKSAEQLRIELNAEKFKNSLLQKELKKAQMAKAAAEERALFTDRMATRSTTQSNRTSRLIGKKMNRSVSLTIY

PLK2 = target: T3, PLK2 (Homo sapiens, UniProt Q9NYY3); conditions: live cell, K10 tracer
T3 construct: host or cells: HEK293
T3 sequence (Q9NYY3 whole entry): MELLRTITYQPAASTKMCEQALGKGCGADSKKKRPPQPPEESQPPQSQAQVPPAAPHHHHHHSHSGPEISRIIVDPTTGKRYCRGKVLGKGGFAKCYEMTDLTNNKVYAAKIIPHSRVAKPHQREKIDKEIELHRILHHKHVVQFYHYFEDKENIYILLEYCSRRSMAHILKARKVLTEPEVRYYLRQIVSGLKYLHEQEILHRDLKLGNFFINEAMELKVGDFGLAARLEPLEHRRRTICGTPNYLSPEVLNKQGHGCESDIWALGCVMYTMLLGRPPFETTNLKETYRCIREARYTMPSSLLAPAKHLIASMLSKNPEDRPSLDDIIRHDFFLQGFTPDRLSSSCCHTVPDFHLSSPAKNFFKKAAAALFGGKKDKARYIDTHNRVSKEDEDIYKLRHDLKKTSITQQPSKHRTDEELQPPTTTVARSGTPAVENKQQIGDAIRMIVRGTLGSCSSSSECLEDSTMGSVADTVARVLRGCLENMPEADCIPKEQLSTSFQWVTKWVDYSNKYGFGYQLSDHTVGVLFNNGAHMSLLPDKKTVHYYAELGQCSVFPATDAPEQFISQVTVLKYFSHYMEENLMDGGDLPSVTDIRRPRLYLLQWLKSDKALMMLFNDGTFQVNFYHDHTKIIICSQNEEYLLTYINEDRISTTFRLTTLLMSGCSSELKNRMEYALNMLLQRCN

TNNI3K = target: T4, TNNI3K (Homo sapiens, UniProt Q59H18); conditions: live cell, K10 tracer
T4 construct: host or cells: HEK293
T4 sequence (Q59H18 1-835): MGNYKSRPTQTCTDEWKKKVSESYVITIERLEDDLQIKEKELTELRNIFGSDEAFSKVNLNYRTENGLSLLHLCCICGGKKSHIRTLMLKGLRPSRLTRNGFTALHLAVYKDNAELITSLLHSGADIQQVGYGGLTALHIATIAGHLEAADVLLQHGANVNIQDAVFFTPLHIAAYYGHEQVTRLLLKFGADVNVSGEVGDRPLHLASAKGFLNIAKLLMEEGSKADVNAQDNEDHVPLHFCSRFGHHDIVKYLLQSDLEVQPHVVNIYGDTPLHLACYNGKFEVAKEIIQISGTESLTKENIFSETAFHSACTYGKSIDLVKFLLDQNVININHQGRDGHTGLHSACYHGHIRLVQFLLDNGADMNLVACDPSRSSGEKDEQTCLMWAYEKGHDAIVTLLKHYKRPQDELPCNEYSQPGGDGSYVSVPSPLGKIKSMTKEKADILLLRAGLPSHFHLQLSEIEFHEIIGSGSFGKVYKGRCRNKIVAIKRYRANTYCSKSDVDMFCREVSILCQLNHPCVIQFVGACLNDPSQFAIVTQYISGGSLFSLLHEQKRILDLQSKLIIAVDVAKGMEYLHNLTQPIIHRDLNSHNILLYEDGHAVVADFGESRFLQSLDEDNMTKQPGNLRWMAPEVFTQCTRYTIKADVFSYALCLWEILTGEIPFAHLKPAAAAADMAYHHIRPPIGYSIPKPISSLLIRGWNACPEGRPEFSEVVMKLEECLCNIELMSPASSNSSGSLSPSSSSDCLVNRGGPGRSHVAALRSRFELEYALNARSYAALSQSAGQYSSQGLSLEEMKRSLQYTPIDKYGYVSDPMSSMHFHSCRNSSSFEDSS

MAP3K4 = target: T5, MAP3K4 (Homo sapiens, UniProt Q9Y6R4); conditions: live cell, K10 tracer
T5 construct: host or cells: HEK293
T5 sequence (Q9Y6R4 whole entry): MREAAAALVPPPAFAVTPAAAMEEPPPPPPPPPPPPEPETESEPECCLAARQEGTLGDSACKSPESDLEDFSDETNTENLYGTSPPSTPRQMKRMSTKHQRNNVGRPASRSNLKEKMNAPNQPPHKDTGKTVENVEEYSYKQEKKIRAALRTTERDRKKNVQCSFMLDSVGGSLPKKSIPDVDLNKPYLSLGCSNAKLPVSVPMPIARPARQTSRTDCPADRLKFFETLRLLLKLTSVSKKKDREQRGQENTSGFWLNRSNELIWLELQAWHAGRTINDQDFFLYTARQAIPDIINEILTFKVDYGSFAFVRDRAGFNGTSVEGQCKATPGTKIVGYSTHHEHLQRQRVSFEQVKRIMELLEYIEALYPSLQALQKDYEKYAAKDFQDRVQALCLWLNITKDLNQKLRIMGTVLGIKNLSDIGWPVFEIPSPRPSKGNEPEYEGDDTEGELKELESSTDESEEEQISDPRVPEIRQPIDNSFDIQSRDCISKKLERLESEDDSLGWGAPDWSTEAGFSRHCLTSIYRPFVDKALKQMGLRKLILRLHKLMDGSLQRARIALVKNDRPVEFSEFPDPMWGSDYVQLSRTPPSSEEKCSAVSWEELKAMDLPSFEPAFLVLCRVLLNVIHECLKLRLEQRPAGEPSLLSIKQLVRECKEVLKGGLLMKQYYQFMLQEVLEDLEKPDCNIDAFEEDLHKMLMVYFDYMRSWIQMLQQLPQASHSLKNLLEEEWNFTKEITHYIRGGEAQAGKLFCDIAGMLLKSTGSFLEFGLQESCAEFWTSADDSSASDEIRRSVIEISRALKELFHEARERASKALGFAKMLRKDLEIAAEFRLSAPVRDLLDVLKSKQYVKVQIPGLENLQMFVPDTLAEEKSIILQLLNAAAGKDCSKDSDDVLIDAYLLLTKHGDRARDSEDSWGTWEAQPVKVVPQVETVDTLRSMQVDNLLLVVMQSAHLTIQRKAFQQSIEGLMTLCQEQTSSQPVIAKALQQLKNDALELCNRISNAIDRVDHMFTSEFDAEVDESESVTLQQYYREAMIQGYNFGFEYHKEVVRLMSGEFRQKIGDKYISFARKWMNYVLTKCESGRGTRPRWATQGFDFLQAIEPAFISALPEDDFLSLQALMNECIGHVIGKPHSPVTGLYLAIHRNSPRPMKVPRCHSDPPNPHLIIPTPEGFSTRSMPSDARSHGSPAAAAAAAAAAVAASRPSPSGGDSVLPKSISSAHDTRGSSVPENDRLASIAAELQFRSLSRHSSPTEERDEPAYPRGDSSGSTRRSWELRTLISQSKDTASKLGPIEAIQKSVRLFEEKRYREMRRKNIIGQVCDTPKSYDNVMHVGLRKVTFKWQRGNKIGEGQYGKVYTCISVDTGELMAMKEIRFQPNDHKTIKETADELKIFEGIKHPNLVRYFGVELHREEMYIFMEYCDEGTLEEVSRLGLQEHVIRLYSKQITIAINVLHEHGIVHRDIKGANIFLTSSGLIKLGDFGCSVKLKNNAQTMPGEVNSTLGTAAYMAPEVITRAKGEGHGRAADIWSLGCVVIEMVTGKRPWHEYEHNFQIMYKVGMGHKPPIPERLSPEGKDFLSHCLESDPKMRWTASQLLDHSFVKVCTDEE

GAK = target: T6, GAK (Homo sapiens, UniProt O14976); conditions: live cell, K10 tracer
T6 construct: host or cells: HEK293
T6 sequence (O14976 1-1311): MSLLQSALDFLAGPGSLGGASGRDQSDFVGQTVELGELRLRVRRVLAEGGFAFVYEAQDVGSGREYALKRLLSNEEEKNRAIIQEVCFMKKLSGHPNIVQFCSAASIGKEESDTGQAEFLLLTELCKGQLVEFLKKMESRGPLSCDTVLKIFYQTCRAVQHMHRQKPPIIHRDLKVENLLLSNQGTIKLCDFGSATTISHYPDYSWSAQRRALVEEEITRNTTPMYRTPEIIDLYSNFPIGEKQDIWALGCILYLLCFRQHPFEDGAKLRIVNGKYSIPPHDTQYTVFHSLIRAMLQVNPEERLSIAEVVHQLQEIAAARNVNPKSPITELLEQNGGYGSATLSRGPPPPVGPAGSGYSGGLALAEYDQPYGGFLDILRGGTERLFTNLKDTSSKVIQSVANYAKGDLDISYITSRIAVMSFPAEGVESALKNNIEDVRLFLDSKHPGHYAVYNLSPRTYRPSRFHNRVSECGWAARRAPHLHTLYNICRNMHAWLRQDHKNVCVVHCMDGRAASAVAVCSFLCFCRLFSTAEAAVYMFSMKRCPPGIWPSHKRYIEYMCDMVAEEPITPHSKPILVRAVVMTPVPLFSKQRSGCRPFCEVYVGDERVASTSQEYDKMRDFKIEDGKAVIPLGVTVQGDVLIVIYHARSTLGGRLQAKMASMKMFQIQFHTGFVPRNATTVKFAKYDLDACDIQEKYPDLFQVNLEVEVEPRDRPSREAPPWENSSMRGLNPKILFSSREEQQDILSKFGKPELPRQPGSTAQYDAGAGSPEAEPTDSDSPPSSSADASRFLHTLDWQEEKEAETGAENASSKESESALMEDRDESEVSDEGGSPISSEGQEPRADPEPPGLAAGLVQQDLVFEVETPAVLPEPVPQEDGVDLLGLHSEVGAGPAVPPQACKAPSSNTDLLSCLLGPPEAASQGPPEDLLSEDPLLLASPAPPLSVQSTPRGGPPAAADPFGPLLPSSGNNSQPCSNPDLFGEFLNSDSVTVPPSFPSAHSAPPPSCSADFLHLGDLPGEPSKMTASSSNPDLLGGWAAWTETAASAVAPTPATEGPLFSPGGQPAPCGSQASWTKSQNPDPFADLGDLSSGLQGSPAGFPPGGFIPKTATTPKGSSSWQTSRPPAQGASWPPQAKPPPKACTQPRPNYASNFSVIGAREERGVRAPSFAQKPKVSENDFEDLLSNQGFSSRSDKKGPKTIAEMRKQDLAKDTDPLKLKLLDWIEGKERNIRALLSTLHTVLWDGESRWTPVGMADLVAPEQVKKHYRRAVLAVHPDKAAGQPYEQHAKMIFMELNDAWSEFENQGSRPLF

WEE2 = target: T7, WEE2 (Homo sapiens, UniProt P0C1S8); conditions: live cell, K10 tracer
T7 construct: host or cells: HEK293
T7 sequence (P0C1S8 whole entry): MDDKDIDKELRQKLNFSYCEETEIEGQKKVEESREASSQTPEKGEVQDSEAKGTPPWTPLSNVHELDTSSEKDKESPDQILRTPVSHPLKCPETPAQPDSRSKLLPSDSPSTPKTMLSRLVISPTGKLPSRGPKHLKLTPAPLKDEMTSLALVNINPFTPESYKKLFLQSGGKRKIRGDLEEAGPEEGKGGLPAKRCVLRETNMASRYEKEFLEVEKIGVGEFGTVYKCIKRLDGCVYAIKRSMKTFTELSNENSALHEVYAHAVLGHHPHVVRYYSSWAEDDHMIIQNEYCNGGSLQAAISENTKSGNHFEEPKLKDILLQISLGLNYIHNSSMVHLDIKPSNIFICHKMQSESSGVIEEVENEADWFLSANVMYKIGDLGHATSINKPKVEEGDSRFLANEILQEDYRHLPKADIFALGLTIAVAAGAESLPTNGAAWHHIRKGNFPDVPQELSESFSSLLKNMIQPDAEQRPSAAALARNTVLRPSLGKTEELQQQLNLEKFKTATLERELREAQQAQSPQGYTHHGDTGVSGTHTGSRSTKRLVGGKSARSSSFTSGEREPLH

PLK3 = target: T8, PLK3 (Homo sapiens, UniProt Q9H4B4); conditions: live cell, K10 tracer
T8 construct: host or cells: HEK293
T8 sequence (Q9H4B4 whole entry): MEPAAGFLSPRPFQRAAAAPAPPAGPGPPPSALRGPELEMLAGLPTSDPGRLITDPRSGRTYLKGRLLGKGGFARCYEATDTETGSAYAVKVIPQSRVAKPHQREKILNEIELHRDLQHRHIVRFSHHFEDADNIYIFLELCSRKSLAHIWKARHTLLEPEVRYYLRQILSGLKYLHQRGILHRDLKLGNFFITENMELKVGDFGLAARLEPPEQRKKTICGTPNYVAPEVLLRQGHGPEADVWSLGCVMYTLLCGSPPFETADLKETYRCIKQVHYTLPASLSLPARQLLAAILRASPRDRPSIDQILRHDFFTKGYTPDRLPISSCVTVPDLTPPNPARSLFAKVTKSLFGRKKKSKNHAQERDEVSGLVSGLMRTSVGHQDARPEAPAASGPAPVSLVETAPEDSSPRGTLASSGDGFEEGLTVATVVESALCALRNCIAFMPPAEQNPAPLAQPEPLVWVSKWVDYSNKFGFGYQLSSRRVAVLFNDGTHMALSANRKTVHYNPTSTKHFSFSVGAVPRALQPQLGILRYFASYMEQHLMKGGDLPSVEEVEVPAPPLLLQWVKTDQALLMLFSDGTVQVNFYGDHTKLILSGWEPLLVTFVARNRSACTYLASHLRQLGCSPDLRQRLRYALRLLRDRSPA

C=CCn1c(=O)c2cnc(Nc3ccc(N4CCN(C)CC4)cc3)nc2n1-c1cccc(C(C)(C)O)n1 [adavosertib]
IC50 (human PLK1 (NLuc-PLK1)): > 1000 nM | receptor occupancy at 1 µM (WEE1): 95% | receptor occupancy at 1 µM (PLK2): 95% | receptor occupancy at 1 µM (TNNI3K): 70% | receptor occupancy at 1 µM (MAP3K4): 67% | receptor occupancy at 1 µM (GAK): 63% | receptor occupancy at 1 µM (WEE2): 59% | receptor occupancy at 1 µM (PLK3): 53%
